Assay results: patent publication EP1078002B1, “PEPTIDE ANTIANGIOGENIC DRUGS” (ABBOTT LABORATORIES, priority 1998, dated 1999)
Peptide text beside a SMILES is read from it.

Experiments:
[1] = system: Human Microvascular Endothelial Cells; assay: Human microvascular endothelial cell (HMVEC) migration assay, modified Boyden chamber; format: cell-based; details: activators 15 ng/ml bFGF/VEGF, 4 hours at 37 °C
Protocol: The human microvascular endothelial (HMVEC) migration assay was run according to the procedure of S. S. Tolsma, O. V. Volpert, D. J. Good, W. F. Frazier, P. J. Polverini and N. Bouck, J. Cell Biol. 122, 497-511 (1993).
The HMVEC migration assay was carried out using Human Microvascular Endothelial Cells-Dermal (single donor) and Human Microvascular Endothelial Cells, (neonatal). The BCE or HMVEC cells were starved overnight in DME containing 0.1 % bovine serum albumin (BSA). Cells were then harvested with trypsin and resuspended in DME with 0.1 % BSA at a concentration of 1.5 X 10^6 cells per ml. Cells were added to the bottom of a 48 well modified Boyden chamber (Nucleopore Corporation, Cabin John, MD). The chamber was assembled and inverted, and cells were allowed to attach for 2 hours at 37 °C to polycarbonate chemotaxis membranes (5 µm pore size) that had been soaked in 0.1% gelatin overnight and dried. The chamber was then reinverted, and test substances (total volume of 50 µl), including activators, 15 ng/ml bFGF/VEGF, were added to the wells of the upper chamber. The apparatus was incubated for 4 hours at 37 °C. Membranes were recovered, fixed and stained (Diff Quick, Fisher Scientific) and the number of cells that had migrated to the upper chamber per […] high power fields counted. Background migration to DME + 0.1 BSA was subtracted and the data reported as the number of cells migrated per 10 high power fields (400X) or, when results from multiple experiments were combined, as the percent inhibition of migration compared to a positive control.

[2] = system: Rat Cornea Neovascularization; assay: Rat cornea neovascularization (bFGF/Hydron pellet implantation); format: in vivo, Sprague Dawley rats; details: day seven post-implantation
Protocol: […] Louis, MO) were pipetted into the tip of a sterile Teflon rod. After drying for 1-2 hours, the pellets were stored at 4 °C.
A small (about 2 mm) radial incision at 1 mm from the center of the cornea was performed in anesthetized Sprague Dawley rats. With a curved iris spatula, an intrastromal pocket was made to a distance of 1 mm from the limbus-the circular blood vessels that surround the cornea. A single pellet was implanted. Antibiotic ointment (neosporin) was applied post surgery to the operated eye to prevent infection and to decrease inflammation.
At day seven post-implantation, neovascularization was measured through a slitlamp biomicroscopy (Nikon NS-1), connected to an image analysis system (Leica Qwin). The response was calculated by colorimetrically detecting the area of new blood vessels, and calculating the new vessel surface area in µm^2.

## CCC[C@H](NC(=O)[C@@H](NC(=O)[C@H](NC(=O)[C@@H](NC(=O)CNC(=O)CN(C)C(C)=O)C(C)C)[C@H](C)CC)[C@@H](C)O)C(=O)N[C@H](C(=O)N[C@@H](CCCNC(=N)N)C(=O)N1CCC[C@H]1C(=O)NCCC1CCCCC1)[C@@H](C)CC [Example 12, N-Ac-Sar-Gly-Val-D-Ile-Thr-Nva-Ile-Arg-ProNHCH2CH2-cyclohexyl] (HELM PEPTIDE1{[ac].[Sar].G.V.[dI].T.[Nva].I.R.P.[C1CCC(CCN[*:1])CC1]}$$$$V2.0)
[1]
  % Inhib. @ 20 nM: 55.8%

## CCC[C@H](NC(=O)[C@@H](NC(=O)[C@H](NC(=O)[C@@H](NC(=O)CNC(=O)CN(C)C(=O)CCCCCNC(C)=O)C(C)C)[C@H](C)CC)[C@@H](C)O)C(=O)N[C@H](C(=O)N[C@@H](CCCNC(=N)N)C(=O)N1CCC[C@H]1C(=O)NCC)[C@@H](C)CC [Example 63, N-[6-N'-Acetyl-(CH2)5C(O)]-Sar-Gly-Val-D-Ile-Thr-Nva-Ile-Arg-ProNHCH2CH3] (HELM PEPTIDE1{[ac].[O=C(CCCCCN[*:1])[*:2]].[Sar].G.V.[dI].T.[Nva].I.R.P.[CCN[*:1]]}$$$$V2.0)
[1]
  % Inhib. @ 10 nM: 82.4%

## CCC[C@H](NC(=O)[C@@H](NC(=O)[C@H](NC(=O)[C@@H](NC(=O)CNC(=O)CN(C)C(C)=O)C(C)C)[C@H](C)CC)[C@@H](C)O)C(=O)N[C@H](C(=O)N[C@@H](CCCNC(=N)N)C(=O)N1CCC[C@H]1C(=O)NCC)[C@@H](C)CC [Example 1, N-Ac-Sar-Gly-Val-D-Ile-Thr-Nva-Ile-Arg-ProNHCH2CH3] (HELM PEPTIDE1{[ac].[Sar].G.V.[dI].T.[Nva].I.R.P.[CCN[*:1]]}$$$$V2.0)
[2]; dose 5 µM in pellet with 100 ng bFGF, 5 corneas
  % Inhibition: 74.8%
[2]; dose 6 µM in pellet with 100 ng bFGF, 4 corneas
  % Inhibition: 71.5%
[2]; dose 10 µM in pellet with 100 ng bFGF, 6 corneas
  % Inhibition: 92.6%

## CCC[C@H](NC(=O)[C@@H](NC(=O)[C@H](NC(=O)[C@@H](NC(=O)CNC(=O)CN(C)C(C)=O)C(C)C)[C@H](C)CC)[C@@H](C)O)C(=O)N[C@H](C(=O)N[C@@H](CCCNC(=N)N)C(=O)N1CCC[C@H]1C(=O)NC)[C@@H](C)CC [Example 3, N-Ac-Sar-Gly-Val-D-Ile-Thr-Nva-Ile-Arg-ProNHCH3] (HELM PEPTIDE1{[ac].[Sar].G.V.[dI].T.[Nva].I.R.P.[CN[*:1]]}$$$$V2.0)
[1]
  % Inhib. @ 20 nM: 56.0%

## CCCCCCCC[C@H](NC(=O)[C@@H](NC(=O)[C@H](NC(=O)[C@@H](NC(=O)CNC(=O)CN(C)C(C)=O)C(C)C)[C@H](C)CC)[C@@H](C)O)C(=O)N[C@H](C(=O)N[C@@H](CCCNC(=N)N)C(=O)N1CCC[C@H]1C(=O)NCC)[C@@H](C)CC [Example 50, N-Ac-Sar-Gly-Val-D-Ile-Thr-Octylgly-Ile-Arg-ProNHCH2CH3] (HELM PEPTIDE1{[ac].[Sar].G.V.[dI].T.[CCCCCCCC[C@H](N[*:1])C(=O)[*:2]].I.R.P.[CCN[*:1]]}$$$$V2.0)
[1]
  % Inhib. @ 20 nM: 71.6%

## N-Cyclohexylacetyl-Sar-Gly-Val-D-Ile-Tlu-Nva-Ile-Arg-ProNHCH2CH3 [Example 52]
[1]
  % Inhib. @ 20 nM: 46.5%

## N-Ac-Sar-Gly-Val-D-Ile-Thr-Nva-Ile-Arg-ProNHethyl-1-(R)-cyclohexyl [Example 8]
[1]
  % Inhib. @ 10 nM: 88.2%
